Results as given in US20150087697A1, “COMPOSITIONS AND METHODS FOR THE TREATMENT OF MUSCLE PAIN” (priority 2012, published 2015).

Assay: in vivo
Settings: rat, iv, 30 μg/min/kg

CC/C=C\C/C=C\C/C=C\C/C=C\C/C=C\CCCC(=O)OCCN(CC)CCOC(c1ccccc1)c1ccccc1 [Formula I (compound 1-4)]
half-life (brain (striatum microdialysate, unbound drug)): 49.1 ± 7.3 min | half-life (plasma (femoral vein microdialysate, unbound drug)): 67.6 ± 1.4 min
